# Laboratory results taken from patent US12686692B2, “KRas G12D inhibitors” (Mirati Therapeutics, Inc., priority 2020, dated 2026).
# pIC50, pKd: −log10 of the molar value.
# Experiments:
# KRas G12D [1] = target: T1, KRas G12D (Homo sapiens, UniProt P01116, G12D); assay: KRas G12D Binding Assay (TR-FRET displacement of labeled tracer); design: corresponding to amino acids 1:169, produced at Array BioPharma; biotin (protein is biotinylated); settings: TR-FRET displacement of Cy5 labelled tracer, biotinylated GDP-loaded KRAS G12D (aa 1:169), 60 minute incubation at 22° C.
# Procedure, shortened: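 Biotinylated GDP-loaded human KRAS G12D (aa 1–169) incubated with Cy5 tracer, Eu-streptavidin and compound (2% DMSO final) in 50 mM HEPES pH 7.5, 5 mM MgCl2, 0.005% Tween-20, 1 mM DTT, 60 min at 22 °C. TR-FRET ratio converted to percent of control; IC50 at 50 POC from 4-parameter logistic fit.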
# Target sequence in this assay (P01116 1-169 isoform P01116-2 G12D): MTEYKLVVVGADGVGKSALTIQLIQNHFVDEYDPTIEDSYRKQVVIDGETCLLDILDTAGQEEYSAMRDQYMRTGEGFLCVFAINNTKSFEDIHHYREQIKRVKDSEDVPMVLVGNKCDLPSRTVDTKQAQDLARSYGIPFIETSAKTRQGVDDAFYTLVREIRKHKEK
# KRas G12D [2] = target: T1, KRas G12D; assay: KRas G12D Surface Plasmon Resonance (SPR) Binding Assay; settings: Biacore T200, biotinylated Avidin-tagged KRAS protein on SA chip, 20 C, 1:1 binding model
# Procedure, shortened: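 Biotinylated Avi-tagged KRAS G12D was captured on a streptavidin chip; compounds were injected as 3-fold dilution series in HBS-Mg buffer, pH 7.5, with DMSO at 20 C (60 s contact, 120 s dissociation). Binding constants came from 1:1 model fits.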
# Target sequence in this assay (P01116 1-188 isoform P01116-2 G12D): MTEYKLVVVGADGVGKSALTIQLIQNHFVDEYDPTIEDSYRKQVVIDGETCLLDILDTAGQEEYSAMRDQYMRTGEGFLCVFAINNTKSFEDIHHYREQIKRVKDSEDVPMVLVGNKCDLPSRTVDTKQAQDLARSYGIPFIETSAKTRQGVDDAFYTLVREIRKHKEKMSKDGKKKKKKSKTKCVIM
# [3] = tested on: KRas G12D-mediated Phosphorylation of ERK; assay: Inhibition of KRas G12D-mediated Phosphorylation of ERK in AGS cells; format: cell-based; settings: Homo sapiens; AGS cells expressing G12D, 3 hours, phospho-ERK normalized to GAPDH
# Procedure, shortened: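 AGS cells (endogenous KRas G12D) were treated with compounds for 3 h in 0.5% DMSO, then fixed, permeabilized and immunostained. The phospho-ERK (Thr202/Tyr204) signal was normalized to GAPDH in-cell by infrared detection and expressed as % of DMSO control. IC50 came from a 4-parameter fit.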
SMILES,pIC50 (KRas G12D [1]),pKd (KRas G12D [2]),pIC50 [3]
"CN1CCC[C@H]1COc1nc2c(c(N3CC4CC(F)C(C3)N4)n1)CCN(c1cc(O)cc3ccccc13)C2 (stereo partly drawn) [Example 38, 4-(4-(6-fluoro-3,8-diazabicyclo[3.2.1]octan-3-yl)-2-(((S)-1-methylpyrrolidin-2-yl)methoxy)-5,8-dihydropyrido[3,4-d]pyrimidin-7(6H)-yl)naphthalen-2-ol]",7.13,5.63,5.30
"Oc1cc(N2CCc3c(nc(OCC45CCCN4CCC5)nc3N3C[C@H]4CC[C@@H](C3)N4)C2)c2ccccc2c1 [Example 31, 4-(4-((1R,5S)-3,8-diazabicyclo[3.2.1]octan-3-yl)-2-((tetrahydro-1H-pyrrolizin-7a(5H)-yl)methoxy)-5,8-dihydropyrido[3,4-d]pyrimidin-7(6H)-yl)naphthalen-2-ol]",8.42,9.10,5.79
"O[C@@H]1C[C@@H]2CN(c3nc(OCC45CCCN4CC(F)C5)nc4c3CCN(c3cccc5cccc(Cl)c35)C4)C[C@H]1N2 (mixture of isomers) [Example 45, (1R,5R,6R)-3-(7-(8-chloronaphthalen-1-yl)-2-((2-fluorotetrahydro-1H-pyrrolizin-7a(5H)-yl)methoxy)-5,6,7,8-tetrahydropyrido[3,4-d]pyrimidin-4-yl)-3,8-diazabicyclo[3.2.1]octan-6-ol]",8.59,8.72,5.87
"CN1CCC[C@H]1COc1nc2c(c(N3C[C@H]4CC(CCO)[C@@H](C3)N4)n1)CCN(c1cccc3cccc(Cl)c13)C2 (stereo partly drawn) [Example 91, 2-((1R,5S)-3-(7-(8-chloronaphthalen-1-yl)-2-(((S)-1-methylpyrrolidin-2-yl)methoxy)-5,6,7,8-tetrahydropyrido[3,4-d]pyrimidin-4-yl)-3,8-diazabicyclo[3.2.1]octan-6-yl)ethan-1-ol]",7.11,6.75,< 4.78
"CN1CCC[C@H]1COc1nc2c(c(N3CC4CC(O)C(C3)N4)n1)CCN(c1cc(O)cc3ccccc13)C2 (mixture of isomers) [Example 4, 3-(7-(3-hydroxynaphthalen-1-yl)-2-(((S)-1-methylpyrrolidin-2-yl)methoxy)-5,6,7,8-tetrahydropyrido[3,4-d]pyrimidin-4-yl)-3,8-diazabicyclo[3.2.1]octan-6-ol]",8.43,8.82,6.00
"CN1CCC[C@H]1COc1nc2c(c(N3C[C@H]4CC[C@@H](C3)N4)n1)CCN(c1c(F)cccc1C(F)(F)F)C2 [Example 75, 4-((1R,5S)-3,8-diazabicyclo[3.2.1]octan-3-yl)-7-(2-fluoro-6-(trifluoromethyl)phenyl)-2-(((S)-1-methylpyrrolidin-2-yl)methoxy)-5,6,7,8-tetrahydropyrido[3,4-d]pyrimidine]",< 5.00,3.77,< 4.78
"Cc1cccc2cccc(N3CCc4c(nc(OC[C@@H]5CCCN5C)nc4N4C[C@H]5CC[C@@H](C4)N5)C3)c12 [Example 52, 4-((1R,5S)-3,8-diazabicyclo[3.2.1]octan-3-yl)-7-(8-methylnaphthalen-1-yl)-2-(((S)-1-methylpyrrolidin-2-yl)methoxy)-5,6,7,8-tetrahydropyrido[3,4-d]pyrimidine]",6.44,3.60,4.83
"FC(F)(F)c1c(Cl)cccc1N1CCc2c(nc(OCC34CCCN3CCC4)nc2N2C[C@H]3CC[C@@H](C2)N3)C1 [Example 63, 4-((1R,5S)-3,8-diazabicyclo[3.2.1]octan-3-yl)-7-(3-chloro-2-(trifluoromethyl)phenyl)-2-((tetrahydro-1H-pyrrolizin-7a(5H)-yl)methoxy)-5,6,7,8-tetrahydropyrido[3,4-d]pyrimidine]",8.29,7.91,5.18
